Results from patent publication US20120034193A1, “TREATMENT OF NEUROTROPHIC FACTOR MEDIATED DISORDERS” (priority 2009, published 2012).

How the values were obtained:
[1] = system: rat primary cortical neurones; assay: Pre-treatment against glutamate-induced damage (LDH) in cortical neurones; format: cell-based; conditions: for Neuronal survival (% of control): 24 h before and 24 h after glutamate 100 μM 10 min; for Toxicity at the plateau of activity: nanomolar concentration, cortical neurones in vitro
Procedure: Exposure of rat primary cortical neurones to glutamate increases lactate dehydrogenase (LDH) activity measured 24 h after glutamate exposure, indicating significant neuronal damage. Rat cortical neurones were cultured by modification of a method previously described (Singer, et al., Neuroscience Letters, 1996, 212, pp. 13-16). On day 10 of culture, the medium was changed to a serum-free defined medium. On day 12, the cultures were washed and placed for 24 h in fresh medium containing test compound or vehicle (DMSO, 0.25%). On day 13 neurones were exposed to glutamate (100 μM; 10 min) at 37° C. The cultures were then washed with, and placed in, fresh medium supplemented with test compound or vehicle for a further 24 h before LDH was measured. Neuronal damage was assessed by measuring LDH activity in the media at 24 h after glutamate exposure.

[2] = system: Rat dopaminergic neurones; assay: Pre-treatment against MPP+-induced loss of dopaminergic neurones; format: cell-based; conditions: 30 nM, 24 h before and during MPP+ 2 μM 48 h
Procedure: Rat dopaminergic neurones were cultured as previously described (Schinelli et al., Journal of Neurochemistry, 1988, 50, pp. 1900-1907). On day 5, the cultures were washed and placed in fresh medium containing test compounds (30 nM), vehicle (DMSO, 0.25%) or a combination of BDNF (1.85 nM) and GDNF (0.17 nM) for 24 h.
Exposure of rat primary dopaminergic neurones to MPP^+ (2 μM, 24 h) causes a significant decrease in the number of dopaminergic neurones compared to the control. On day 6, MPP^+ (2 μM) was added to the cultures in the presence of test compounds, vehicle or a combination of BDNF and GDNF for a further 48 h. MPP^+ induces neuronal death, via inhibition of complex I in the mitochondria and consequent ATP depletion, resulting in the production of free radicals and induction of apoptosis. After the incubation period, the cultures were fixed with paraformaldehyde in PBS (4%). After fixation, the neurones were permeabilised with Triton ×100 (0.05%) for 30 min. The neurones were then incubated with anti-tyrosine hydroxylase (TH) at 37° C. for 2 h. The neurones were washed three times with PBS, and then incubated with goat anti mouse/Cy3 for 2 h at 37° C. The neurones were mounted and examined with the fluorescence microscopy.

Rat sensory neurones = assay: Neuronal survival in sensory neurones; format: cell-based, Wistar rat; conditions: 0.2 nM, 2 days
Procedure: Rat sensory neurones were obtained from Wistar rat embryos on the 15th day of gestation. Cells were cultured at 37° C. in 5% CO2/95% air atmosphere. Following 2 days of culturing with sarsasapogenin, smilagenin, vehicle (DMSO, 0.25%) or NGF, sensory neurones were rinsed twice with PBS and fixed in paraformaldehyde (4%) in PBS for 30 min at 4° C. Cells were permeabilised with Triton X-100 (0.1%) and non-specific sites were saturated using foetal bovine serum. Prior to staining, cells were incubated for 2 h at room temperature with a mixture of primary antibodies: anti-neurofilament 68 and 200 in PBS containing foetal bovine serum 5%. Prior to washing, slides were demounted and the cells were washed twice with PBS for 5 min, placed in a dark room for 1 h and incubated with a secondary antibody: anti-mouse coupled with cyanine 3 (Cy3; 1/1600) and an anti-rabbit coupled with fluoroisothiocyanate (FITC; 1/200) in PBS containing foetal bovine serum (5%). Slides were washed twice with PBS for 5 min and mounted on coverslips using Mowiol, an antioxidative solution (9% w/v) in glycerol (22%) buffered with Tris/HCl ([…]; pH 8.5). Slides were left overnight at room temperature to harden and stored in light protected conditions. Slides were viewed using a DAPI/FITC/Cy3 triple filter microscope with a ×20 objective. A series of photographs per well were taken at random using a digital camera.

Rat cortical neurones = assay: Neuritogenesis in cortical neurones; format: cell-based; conditions: 3 nM, 24 h; for Neurones displaying neurites (%): control 39.35 ± 2.06
Procedure: Rat cortical neurones were cultured by modification of a previously described method (Singer, et al., Neuroscience Letters, 1996, 212, pp. 13-16). Cells were cultured with sarsasapogenin, smilagenin, vehicle (DMSO 0.25%), GDNF, BDNF or NGF for 24 h. For each group, 15 pictures showing neurones displaying neurites were selected at random in each field, and for each neurone the longest neurite was measured. The neurite number was measured by counting the number of neurones displaying neurites, the number of neurones not displaying neurites and the number of total neurones in each field. Six fields per well were examined.
The results are shown in Table 15 below, expressed as the number of neurones with neurites per field as a percentage of the total number of neurones per field.

pmn mice = conditions: literature (Sagot et al. 1996); cited from earlier work

C[C@H]1CC[C@@]2(OC1)O[C@H]1C[C@H]3[C@@H]4CC[C@@H]5C[C@H](O)CC[C@]5(C)[C@H]4CC[C@]3(C)[C@H]1[C@@H]2C [episarsasapogenin]
Neuronal survival (% of control) ([1]; 1 nM): 84.79 ± 2.40 % of control
Neuronal survival (% of control) ([1]; 3 nM): 80.39 ± 5.18 % of control
Neuronal survival (% of control) ([1]; 10 nM): 83.80 ± 4.18 % of control
Neuronal survival (% of control) ([1]; 30 nM): 87.17 ± 2.51 % of control
Neuronal survival (% of control) ([1]; 100 nM): 86.42 ± 2.95 % of control
Toxicity at the plateau of activity [1]: without causing any toxicity
Neuronal survival (% of control) [2]: 95.01 ± 4.52 % of control

NGF: nerve growth factor
Neuronal survival (% of control) (Rat sensory neurones): 151.50 ± 7.19 % of control
Neurite length (% of control) (Rat cortical neurones): 145.73 ± 5.13 % of control
Neurones displaying neurites (%) (Rat cortical neurones): 52.59 ± 2.43 %

C[C@@H]1CC[C@@]2(OC1)O[C@H]1C[C@H]3[C@@H]4CC[C@@H]5C[C@H](O)CC[C@]5(C)[C@H]4CC[C@]3(C)[C@H]1[C@@H]2C [epismilagenin]
Neuronal survival (% of control) ([1]; 3 nM): 82.49 ± 3.93 % of control
Neuronal survival (% of control) ([1]; 10 nM): 78.57 ± 2.15 % of control
Neuronal survival (% of control) ([1]; 30 nM): 81.76 ± 2.09 % of control
Neuronal survival (% of control) ([1]; 100 nM): 78.39 ± 1.75 % of control
Neuronal survival (% of control) ([1]; 300 nM): 78.86 ± 1.80 % of control
Toxicity at the plateau of activity [1]: without causing any toxicity
Neuronal survival (% of control) [2]: 115.12 ± 4.73 % of control

B1: GDNF: glial-derived neurotrophic factor (protein, UniProt P39905 78-211, looked up)
Glial cell line-derived …: SPDKQMAVLPRRERNRQAAAANPENSRGKGRRGQRGKNRGCVLTAIHLNVTDLGLGYETKEELIFRYCSGSCDAAETTYDKILKNLSRNRRLVSDKVGQACCRPIAFDDDLSFLDDNLVYHILRKHSAKRCGCI
Neurite length (% of control) (Rat cortical neurones): 125.30 ± 4.18 % of control
Neurones displaying neurites (%) (Rat cortical neurones): 55.72 ± 1.98 %
Motor neurone survival and disease course in pmn mice (pmn mice): improved the motor neurone survival but did not slow down the disease
